Test results: the NIST ThermoML archive (doi:10.1016/j.jct.2014.03.021)

Columns and labels:
[1] = 101.33 kPa, Liquid; for electrical conductivity: Alternating current cell with electrodes; for speed of sound: Sing-around technique in a fixed-path interferometer; for mass density: Vibrating tube method
[2] = refractive index (Na D-line) (dimensionless); conditions: 101.33 kPa, Liquid, Standard Abbe refractometry

C[C@H](O)C(=O)[O-].C[N+](C)(C)CCO
Conditions	electrical conductivity, [1] [S/m]	mass density, [1] [kg/m3]	refractive index, [2]	speed of sound, [1] [m/s]
293.15 K	0.0138	1143.46	1.48146	1935.6
298.15 K	0.0219	1140.3	1.48056	1911.8
303.15 K	0.0327	1137.16	1.47931	1892
308.15 K	0.0455	1134.04	1.47808	1874.8
313.15 K	0.0647	1130.94	1.47676	1859.1
318.15 K	0.0897	1127.86	1.47544	1844.8
323.15 K	0.109	1124.79	1.47418	1831.1

O [water]
Conditions	mass density, [1] [kg/m3]	refractive index, [2]	speed of sound, [1] [m/s]
293.15 K	998.738	1.33299	–
298.15 K	997.576	1.33251	–
303.15 K	996.181	1.33197	–
308.15 K	994.563	1.33135	–
313.15 K	992.744	1.33065	1528.8
318.15 K	990.737	1.3299	–
323.15 K	988.556	1.32911	1542.3
